Consider 79 compounds from the METLIN SMRT retention time set (Domingo-Almenara et al. 2019).

This series in a line: gradient 5% acetonitrile 3 min, to 50% in 2 min, to 85% in 15 min, held 3 min, 100 µL/min. To be noted: column: Zorbax Extend-C18 2.1 x 50 mm; eluents: water / acetonitrile, 0.1% formic acid. The essentials: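 A Zorbax Extend-C18 column (2.1 × 50 mm, 1.8 μm) run at 100 μL/min with water and acetonitrile, both containing 0.1% formic acid, separated mixtures of ~100 pure standards. The HPLC was coupled to a quadrupole time-of-flight mass spectrometer operated in positive and negative ionization mode, with dead and dwell volumes of 40 μL and 900 μL. Each retention time was taken from a computationally picked adduct peak that was then manually inspected.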
`Cc1csc(-c2csc(S(=O)(=O)N(C)Cc3ccccc3)c2)n1` registered an RP-LC retention time of 1090 s.
The result for `Cc1cc(OCC(=O)NCc2ccc3c(c2)OCO3)nc(N2CCCCC2)n1` reads 592 s; that for `Cc1ccc(-c2noc(-c3nc(-c4ccncc4)no3)n2)cc1`, 1090 s; that for `COc1ccccc1NC(=O)N1C[C@@H](F)C[C@H]1C(=O)N1CCc2ccccc2C1`, 828 s.
Compound `CC(C)N(CC#CCNC(=O)Cc1ccccc1Cl)C(C)C` displayed an RP-LC retention time of 566 s.
The compound `Cc1ccc(NC(=O)Cc2nnc(-c3cnccn3)o2)cc1Cl` showed an RP-LC retention time of 756 s.
As to `Clc1ccccc1-c1nnc(-c2ccc(-n3ccnc3)nc2)o1`, the RP-LC retention time came to 658 s.
The result for `O=C1CCC(NC(=O)OCc2ccccc2)(C(=O)OCc2ccccc2)O1` (centres undefined) reads 830 s.
For `Cc1ccc(CNC(=O)N2CCCC(Cn3cnc4cccnc43)C2)cc1` (centres undefined) the value was 676 s; for `Cc1noc(C)c1CC(=O)NC1CCN(c2ccc(=O)n(CCOc3ccccc3)n2)C1` (centres undefined), 701 s.
The result for `COc1cc(NS(=O)(=O)c2cc(-c3nc(C)cs3)n(CC(=O)N3CCCC3)c2)cc(OC)c1` reads 877 s.
Compound `Cc1cccn2cc(C(=O)NCc3cccc(F)c3)nc12` had an RP-LC retention time of 645 s.
`CCCN(CCC)S(=O)(=O)c1ccc(C(=O)Nc2nc(-c3ccc(OC)cc3)c(C)s2)cc1` returned an RP-LC retention time of 1330 s.
The result for `COc1ccc(CNC(=O)C2CCCN(c3nc4ccsc4c(=O)n3-c3ccc(F)cc3)C2)cc1` (centres undefined) reads 857 s; that for `CCOC(=O)c1noc2ncnc(Nc3ccc(OC)cc3)c12`, 717 s.
The result for `CCOc1ccccc1-c1noc(-c2nnn3c2COC(c2ccc(Cl)cc2)C3)n1` (centres undefined) reads 1150 s; that for `Cc1cc(NC(=O)N2CCCC(C)(C(=O)NCc3ccc(F)cc3)C2)ccc1Br` (centres undefined), 1050 s.
Compound `COc1ccc(NC(=O)Cn2c(N3CCCCC3)nc(C)cc2=O)c(OC)c1` yielded an RP-LC retention time of 680 s.
For `CC(C)(C)c1csc(NC(=O)C2CC(=O)N(c3n[nH]c4cccc(F)c34)C2)n1` (centres undefined) the value was 838 s; for `CCN1CCCC1CN(CC(=O)N1CCNCC1)S(=O)(=O)c1ccc(CC(C)C)cc1` (centres undefined), 610 s; for `Cc1cc(C)cc(NC(=O)C2CCc3nc(N4CCOCC4)ncc3C2)c1` (centres undefined), 848 s.
Compound `O=C(NCc1cccs1)C1CCCN(c2nnc3ccc(Cl)cn23)C1` (centres undefined) showed an RP-LC retention time of 650 s.
The result for `COc1cccc2c1OC1(C)CC2C(S(=O)(=O)c2ccc(Cl)cc2)C(=O)N1` (centres undefined) reads 877 s.
The result for `Cc1ccc(C2Cn3nnc(-c4nc(-c5ccc(F)c(F)c5)no4)c3CO2)c(C)c1` (centres undefined) reads 1230 s; that for `COC(=O)c1cc(S(=O)(=O)N2CCCC2C(=O)Nc2ccc(C(C)C)cc2)cn1C` (centres undefined), 1020 s.
For `CCN1C(=O)CCc2cc(NS(=O)(=O)c3cc(F)ccc3F)ccc21` the value was 973 s.
For the compound `O=C(CCc1c(-c2ccccc2)nc2ccccn12)NCc1cccc(Br)c1`, the RP-LC retention time stood at 691 s.
The result for `O=C(NCCCN1CCCCCC1)c1nnc(-c2ccc(S(=O)(=O)N3CCCC3)cc2)o1` reads 648 s; that for `COCc1noc([C@@H]2CN(C(=O)C3(c4ccccc4)CC3)C[C@H]2CO)n1`, 676 s; that for `Cc1ccc(F)cc1S(=O)(=O)NC1CCN(c2ccccc2)C1=O` (centres undefined), 928 s.
As for `O=C(C1=NN(Cc2ccccc2F)c2ccccc2S1(=O)=O)N1CCCCC1`, the RP-LC retention time came to 939 s.
For `CS(=O)(=O)N1CCC(c2nnc(-c3ccco3)s2)CC1` the value was 655 s; for `CCc1nn2c(CNC(=O)c3ccc(Br)cc3)c(-c3ccccc3)nc2s1`, 1010 s; for `CN1CCCn2nc(C3CCN(C(=O)CSc4ccncc4)CC3)cc2C1=O`, 569 s.
The compound `COc1ccc(-n2c(CSc3ncccn3)nnc2SCC(=O)NO)cc1` came in with an RP-LC retention time of 592 s.
The result for `O=C(Nc1ccc(S(=O)(=O)Nc2nccs2)cc1)c1sc2ccccc2c1Cl` reads 799 s; that for `CN1C(=O)CCCCC1C(=O)N1CCOCC1` (centres undefined), 556 s.
For `Cc1ccc(S(=O)(=O)N2CCC(C(=O)NCc3cscn3)CC2)c(C)c1` the value was 752 s; for `O=C1N(c2ccc(F)cc2)c2ncccc2S(=O)(=O)N1Cc1ccccc1F`, 1040 s.
For `O=C(NCc1cccnc1)C1c2ccccc2C(=O)N(C2CCCC2)C1c1cccs1` (centres undefined) the value was 591 s; for `Cc1ccccc1NC(=O)C1CCc2nc(N3CCOCC3)ncc2C1` (centres undefined), 723 s.
`CCOc1ccc(-c2cc3c(SCC)nccn3n2)cc1`: the RP-LC retention time came to 1300 s.
Take `CC(C)Oc1ccc(CNC(=O)C2=Cc3ccccc3OC2)cc1`: the RP-LC retention time amounted to 1040 s.
For `COc1ccccc1-c1nnc(-c2ccc(OC)c(S(=O)(=O)N(C)C)c2)o1` the value was 798 s; for `Cc1noc(C)c1CNC(=O)c1ccc(C#N)cc1`, 675 s.
For `CCCNC(=O)C1CCN(c2ccc(SCC(=O)NCc3cccs3)nn2)CC1` the value was 602 s; for `CS(=O)(=O)N[C@H]1C[C@@H]2C[C@H]1CN2C(=O)c1ccc(C(F)(F)F)cc1`, 571 s; for `CC(C)c1cc(C(=O)N2CCCCC2)nc2ccnn12`, 767 s.
In turn, `CCN1c2ccccc2C(=O)NC12CCN(C(=O)Nc1ccc3c(c1)OCO3)CC2` came in with an RP-LC retention time of 737 s.
For `COc1cccc(-c2noc(C3CC(=O)N(c4ccc(F)cc4)C3)n2)c1OC` (centres undefined) the value was 885 s; for `CCc1ccc(C2=C(C)C(N3CCCN(C(=O)NC(C)CC)CC3)=NS2(=O)=O)cc1` (centres undefined), 866 s.
The result for `CSc1ccc(Cc2nnc(NC(=O)c3nn(C)cc3C)o2)cc1` reads 694 s; that for `O=C(CN1C(=O)c2cccnc2Sc2ccccc21)NCCc1c[nH]c2ccccc12`, 773 s.
For `Cc1cccc(NC(=O)Nc2nc(C(=O)NCc3cccs3)cs2)c1` the value was 794 s; for `N#Cc1ccc(O[C@@H]2c3ccccc3C[C@H]2N2CCC[C@@H](N)C2)c(Cl)c1`, 707 s.
The compound `COc1ccc(-c2csc(C(=O)n3nc(C)cc3C)c2-n2cccc2)cc1` registered an RP-LC retention time of 1300 s.
For `O=C(Nc1ccc(C(=O)N2CCCCC2)c(N2CCCCCC2)c1)C1CC1` the value was 866 s; for `COCCc1noc(C2CN(C(=O)c3ocnc3C)C2)n1`, 595 s; for `O=[N+]([O-])c1ccccc1S(=O)(=O)Nc1cccc(-c2ccc(N3CCOCC3)nn2)c1`, 646 s.
The result for `NC(=O)C1CCN(c2ncnc3c2c(-c2ccccc2)cn3-c2cccc(Cl)c2)CC1` reads 790 s.
The compound `COc1ccc(-c2noc(-c3nn(-c4cccc(F)c4)ccc3=O)n2)cc1OC` yielded an RP-LC retention time of 804 s.
For `CCn1c(C(=O)N2CCN(c3ccccc3F)CC2)cc2c(-c3cccs3)nn(-c3ccccc3)c21`, the RP-LC retention time turned out to be 1270 s.
For `CCN1C(=O)c2cc(S(=O)(=O)Nc3cc(C)ccc3F)ccc2Oc2cccnc21` the value was 1030 s; for `COc1cccc(-c2cc3c(=O)n(Cc4nc(-c5ccccc5)no4)ccn3n2)c1`, 1000 s.
Turning to `Cn1c(=O)c2c(ncn2CC(=O)N2CCCn3nc(-c4ccccc4)cc3C2)n(C)c1=O`, the RP-LC retention time came to 647 s.
For `Cc1ccc(-c2nnc(-c3ccc(Br)cc3)o2)cc1S(=O)(=O)N(C)C` the value was 1090 s.
The result for `Nc1nc(CN2CCN(c3ccccn3)CC2)nc(N2CCCCC2)n1` reads 561 s; that for `CCOC(=O)c1c(C)[nH]c(CCC(=O)NC(C)c2ccccc2)c1C` (centres undefined), 853 s; that for `COCCn1cc(CCNC(=O)Nc2ccc(F)c(Cl)c2)c2cccnc21`, 783 s.
The result for `CCCCCn1c(=O)c2ccccc2n(Cc2nc(-c3ccc(OC(F)(F)F)cc3)no2)c1=O` reads 739 s; that for `CCCc1noc(-c2cccnc2N2CCCN(Cc3cccc(C(F)(F)F)c3)CC2)n1`, 785 s.
`Cc1noc(C)c1S(=O)(=O)N1CCC2(CC1)NCCc1c2[nH]c2ccccc12` came in with an RP-LC retention time of 588 s.
For `COc1ccc(-c2noc(C3CCCN3C(=O)c3ccsc3)n2)cc1OC` (centres undefined) the value was 834 s; for `Cc1cc(S(=O)(=O)N2CCCC2c2nc(-c3cccc(Cl)c3)no2)ccc1F` (centres undefined), 1240 s.
The result for `O=C(NCCc1c[nH]c2ccccc12)c1nnc2n(c1=O)CCN2c1ccc(F)cc1` reads 692 s; that for `CC(C)c1nc2c(NC(=O)c3ccccc3)cccn2n1`, 860 s; that for `CCc1nc(-c2csc(S(=O)(=O)N3CCCC(C(=O)Nc4cccc(OC)c4)C3)c2)no1` (centres undefined), 1000 s.
On to `Cc1nn(C)cc1S(=O)(=O)Nc1ccc2c(c1)OCCO2`, for which the RP-LC retention time is 641 s.
Consider `COc1cccc(NC(=O)N2CCCC2c2cc(C(C)C)no2)c1` (centres undefined), for which the RP-LC retention time was 855 s.
